For 24 compounds, IC50 results are on record in patent US20260297080A1, “BICYCLIC COMPOUNDS AS CDK INHIBITORS” (BeOne Medicines I GmbH, priority 2022, published 2026).

Structures are written as SMILES.

What is called IC50 is the point on the concentration scale where inhibition reaches its midpoint. A lower IC50 goes with greater potency.

One experiment concerns the target CDK1/Cyclin B1 (Homo sapiens, UniProt P06493). In words: CDK1/Cyclin B1 Biochemical Assay (TR-FRET), 0.015 mM ATP. The conditions noted are these: 0.15 μM Rb (Ser780)-biotin substrate, pH7.0, 60 min preincubation, 120 min reaction, room temperature. An outline of the steps:
(§1)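 Kinase preincubated with compound (0–10 μM) 60 min at room temperature, then reaction started with ATP and 0.15 μM Rb (Ser780)-biotin peptide and run 120 min in HEPES pH 7.0 buffer with 50 mM MgCl2. Phospho-Rb detected by Eu-cryptate anti-pRb(Ser780)/streptavidin-XL665 TR-FRET (665/620 nm ratio); IC50 from four-parameter logistic fit.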
In general terms: In TR-FRET formats the signal depends on donor and acceptor labels being close together.

Another experiment deals with CDK2/Cyclin E1 (Homo sapiens, UniProt P24941). In words: CDK2/Cyclin E1 Biochemical Assay (TR-FRET), 0.060 mM ATP. The conditions noted are these: 0.15 μM Rb (Ser780)-biotin substrate, pH7.0, 60 min preincubation, 120 min reaction, room temperature. A digest of the protocol:
as §1

Sequence of CDK1/Cyclin B1 (P06493 whole entry): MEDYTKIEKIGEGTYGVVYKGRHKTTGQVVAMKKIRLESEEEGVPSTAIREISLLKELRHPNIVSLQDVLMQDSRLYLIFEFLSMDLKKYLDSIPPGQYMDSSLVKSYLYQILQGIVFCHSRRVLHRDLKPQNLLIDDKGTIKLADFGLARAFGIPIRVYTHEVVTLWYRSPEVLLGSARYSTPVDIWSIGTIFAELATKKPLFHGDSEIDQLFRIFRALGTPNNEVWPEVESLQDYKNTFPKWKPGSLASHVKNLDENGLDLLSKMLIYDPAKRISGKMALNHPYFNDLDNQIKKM
Sequence of CDK1/Cyclin B1 (P14635 whole entry partner): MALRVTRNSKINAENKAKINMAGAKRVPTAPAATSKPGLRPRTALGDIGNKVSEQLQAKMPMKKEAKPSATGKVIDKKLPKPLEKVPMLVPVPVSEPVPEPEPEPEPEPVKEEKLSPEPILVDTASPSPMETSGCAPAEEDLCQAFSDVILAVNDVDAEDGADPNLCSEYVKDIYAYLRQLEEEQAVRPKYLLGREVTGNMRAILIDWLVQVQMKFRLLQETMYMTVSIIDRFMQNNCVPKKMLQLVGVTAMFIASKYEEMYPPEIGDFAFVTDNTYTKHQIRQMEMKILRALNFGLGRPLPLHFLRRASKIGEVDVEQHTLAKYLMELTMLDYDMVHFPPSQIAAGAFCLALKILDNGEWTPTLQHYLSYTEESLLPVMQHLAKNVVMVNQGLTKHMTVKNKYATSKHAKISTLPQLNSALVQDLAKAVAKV

Consider `CC1(NC(=O)O[C@H]2CC[C@@H](c3cc(Nc4ccc5c(c4)CCS(=O)(=O)N5)n[nH]3)C2)CC1` (single isomer, unassigned) [Example 249b, cis-3-(3-((2,2-dioxido-3,4-dihydro-1H-benzo[c][1,2]thiazin-6-yl)amino)-1H-pyrazol-5-yl)cyclopentyl(1-methylcyclopropyl)carbamate], for which the values for the IC50 on CDK1/Cyclin B1 and at CDK2/Cyclin E1 were 12 nM and 0.6 nM, respectively.
On to `CC(C)NC(=O)O[C@@H]1CC[C@H](c2cc(Nc3ccc4c(c3F)CS(=O)(=O)N4)n[nH]2)C1` (single isomer, unassigned) [Example 251a], for which the IC50 was found to be 74 nM against CDK1/Cyclin B1 and 1.1 nM at CDK2/Cyclin E1.
In the same order, the values of `CC(C)NC(=O)O[C@H]1CC[C@@H](c2cc(Nc3ccc4c(c3F)CS(=O)(=O)N4)n[nH]2)C1` (single isomer, unassigned) [Example 251b] are 31 nM and 1 nM.
Taken in the same sequence, the figures for `CC(C)NC(=O)O[C@H]1CC[C@@H](c2cc(Nc3ccc4c(c3F)CS(=O)(=O)N4C)n[nH]2)C1` (single isomer, unassigned) [Example 255a, cis-3-(3-((4-fluoro-1-methyl-2,2-dioxido-1,3-dihydrobenzo[c]isothiazol-5-yl)amino)-1H-pyrazol-5-yl)cyclopentyl isopropylcarbamate] were 133 nM and 2.9 nM.
For `CC(C)NC(=O)O[C@H]1CC[C@@H](c2cc(Nc3ccc4c(c3F)CS(=O)(=O)N4C)n[nH]2)C1` (single isomer, unassigned) [Example 255b, cis-3-(3-((4-fluoro-1-methyl-2,2-dioxido-1,3-dihydrobenzo[c]isothiazol-5-yl)amino)-1H-pyrazol-5-yl)cyclopentyl isopropylcarbamate], the half-inhibitory concentration (IC50) at CDK1/Cyclin B1 was found to be 149 nM; against CDK2/Cyclin E1 it was 5.2 nM.
Regarding `CCCNC(=O)O[C@H]1CC[C@@H](c2cc(Nc3ccc4c(c3F)CS(=O)(=O)N4C)n[nH]2)C1` (single isomer, unassigned) [Example 256a, cis-3-(3-((4-fluoro-1-methyl-2,2-dioxido-1,3-dihydrobenzo[c]isothiazol-5-yl)amino)-1H-pyrazol-5-yl)cyclopentyl propylcarbamate], the 50% inhibitory concentration (IC50) on CDK1/Cyclin B1 was determined as 334 nM; at CDK2/Cyclin E1, 5.3 nM.
In the same order, the values of `CCCNC(=O)O[C@H]1CC[C@@H](c2cc(Nc3ccc4c(c3F)CS(=O)(=O)N4C)n[nH]2)C1` (single isomer, unassigned) [Example 256b, cis-3-(3-((4-fluoro-1-methyl-2,2-dioxido-1,3-dihydrobenzo[c]isothiazol-5-yl)amino)-1H-pyrazol-5-yl)cyclopentyl propylcarbamate] are 130 nM and 4 nM.
In the case of `CC(C)NC(=O)O[C@H]1CC[C@@H](c2cc(Nc3ccc4c(c3F)CS(=O)(=O)N4C3COC3)n[nH]2)C1` (single isomer, unassigned) [Example 259a, cis-3-(3-((4-fluoro-1-(oxetan-3-yl)-2,2-dioxido-1,3-dihydrobenzo[c]isothiazol-5-yl)amino)-1H-pyrazol-5-yl)cyclopentyl isopropylcarbamate], the half-maximal inhibitory concentration (IC50) on CDK1/Cyclin B1 was determined as 364 nM; against CDK2/Cyclin E1, 5.4 nM.
Taken in the same sequence, the figures for `CC(C)NC(=O)O[C@H]1CC[C@@H](c2cc(Nc3ccc4c(c3F)CS(=O)(=O)N4C3COC3)n[nH]2)C1` (single isomer, unassigned) [Example 259b, cis-3-(3-((4-fluoro-1-(oxetan-3-yl)-2,2-dioxido-1,3-dihydrobenzo[c]isothiazol-5-yl)amino)-1H-pyrazol-5-yl)cyclopentyl isopropylcarbamate] were 157 nM and 3 nM.
Taken in the same sequence, the figures for `CCCNC(=O)O[C@H]1CC[C@@H](c2cc(Nc3ccc4c(c3F)CS(=O)(=O)N4C3COC3)n[nH]2)C1` (single isomer, unassigned) [Example 260a, cis-3-(3-((4-fluoro-1-(oxetan-3-yl)-2,2-dioxido-1,3-dihydrobenzo[c]isothiazol-5-yl)amino)-1H-pyrazol-5-yl)cyclopentyl propylcarbamate] were 270 nM and 5.9 nM.
In the same order, the values of `CCCNC(=O)O[C@H]1CC[C@@H](c2cc(Nc3ccc4c(c3F)CS(=O)(=O)N4C3COC3)n[nH]2)C1` (single isomer, unassigned) [Example 260b, cis-3-(3-((4-fluoro-1-(oxetan-3-yl)-2,2-dioxido-1,3-dihydrobenzo[c]isothiazol-5-yl)amino)-1H-pyrazol-5-yl)cyclopentyl propylcarbamate] are 103 nM and 3.4 nM.
With `CC[C@H](C)NC(=O)O[C@H]1CC[C@@H](c2cc(Nc3ccc4c(c3F)CS(=O)(=O)N4C3COC3)n[nH]2)C1` (single isomer, unassigned) [Example 261a], the half-inhibitory concentration (IC50) worked out at 119 nM against CDK1/Cyclin B1 and 1.3 nM against CDK2/Cyclin E1.
With `CC[C@H](C)NC(=O)O[C@H]1CC[C@@H](c2cc(Nc3ccc4c(c3F)CS(=O)(=O)N4C3COC3)n[nH]2)C1` (single isomer, unassigned) [Example 261b], the IC50 against CDK1/Cyclin B1 amounted to 23 nM; against CDK2/Cyclin E1, 0.7 nM.
With `CC(C)NC(=O)O[C@H]1CC[C@@H](c2cc(Nc3ccc4c(c3F)CS(=O)(=O)N4CC(F)(F)F)n[nH]2)C1` (single isomer, unassigned) [Example 263a, cis-3-(3-((4-fluoro-2,2-dioxido-1-(2,2,2-trifluoroethyl)-1,3-dihydrobenzo[c]isothiazol-5-yl)amino)-1H-pyrazol-5-yl)cyclopentyl isopropylcarbamate], the IC50 against CDK1/Cyclin B1 amounted to 70 nM; against CDK2/Cyclin E1, 2.1 nM.
With `CC(C)NC(=O)O[C@H]1CC[C@@H](c2cc(Nc3ccc4c(c3F)CS(=O)(=O)N4CC(F)(F)F)n[nH]2)C1` (single isomer, unassigned) [Example 263b, cis-3-(3-((4-fluoro-2,2-dioxido-1-(2,2,2-trifluoroethyl)-1,3-dihydrobenzo[c]isothiazol-5-yl)amino)-1H-pyrazol-5-yl)cyclopentyl isopropylcarbamate], the 50% inhibitory concentration (IC50) on CDK1/Cyclin B1 came to 91 nM; against CDK2/Cyclin E1, 5.1 nM.
On to `CC1(NC(=O)O[C@H]2CC[C@@H](c3cc(Nc4ccc5c(c4F)CS(=O)(=O)N5CC(F)(F)F)n[nH]3)C2)CC1` (single isomer, unassigned) [Example 264a, cis-3-(3-((4-fluoro-2,2-dioxido-1-(2,2,2-trifluoroethyl)-1,3-dihydrobenzo[c]isothiazol-5-yl)amino)-1H-pyrazol-5-yl)cyclopentyl(1-methylcyclopropyl)carbamate], for which the IC50 against CDK1/Cyclin B1 worked out at 65 nM; on CDK2/Cyclin E1, 1.3 nM.
As for `CC1(NC(=O)O[C@H]2CC[C@@H](c3cc(Nc4ccc5c(c4F)CS(=O)(=O)N5CC(F)(F)F)n[nH]3)C2)CC1` (single isomer, unassigned) [Example 264b, cis-3-(3-((4-fluoro-2,2-dioxido-1-(2,2,2-trifluoroethyl)-1,3-dihydrobenzo[c]isothiazol-5-yl)amino)-1H-pyrazol-5-yl)cyclopentyl(1-methylcyclopropyl)carbamate], the half-inhibitory concentration (IC50) was 22 nM against CDK1/Cyclin B1 and 1.1 nM at CDK2/Cyclin E1.
Take `CC[C@H](C)NC(=O)O[C@H]1CC[C@@H](c2cc(Nc3ccc4c(c3F)CS(=O)(=O)N4CC(F)(F)F)n[nH]2)C1` (single isomer, unassigned) [Example 265a]: the IC50 was determined as 41 nM against CDK1/Cyclin B1 and 1.6 nM at CDK2/Cyclin E1.
As to `CC[C@H](C)NC(=O)O[C@H]1CC[C@@H](c2cc(Nc3ccc4c(c3F)CS(=O)(=O)N4CC(F)(F)F)n[nH]2)C1` (single isomer, unassigned) [Example 265b], the results for the half-maximal inhibitory concentration (IC50) at CDK1/Cyclin B1 and on CDK2/Cyclin E1 were 26 nM and 2.4 nM, respectively.
Take `[2H]C([2H])([2H])N1c2ccc(Nc3cc([C@@H]4CC[C@H](OC(=O)NC(C)C)C4)[nH]n3)c(F)c2CS1(=O)=O` (single isomer, unassigned) [Example 267a, cis-3-(3-((4-fluoro-1-(methyl-d3)-2,2-dioxido-1,3-dihydrobenzo[c]isothiazol-5-yl)amino)-1H-pyrazol-5-yl)cyclopentyl isopropylcarbamate]: the IC50 was found to be 142 nM against CDK1/Cyclin B1 and 7.8 nM against CDK2/Cyclin E1.
Turning to `[2H]C([2H])([2H])N1c2ccc(Nc3cc([C@@H]4CC[C@H](OC(=O)NC(C)C)C4)[nH]n3)c(F)c2CS1(=O)=O` (single isomer, unassigned) [Example 267b, cis-3-(3-((4-fluoro-1-(methyl-d3)-2,2-dioxido-1,3-dihydrobenzo[c]isothiazol-5-yl)amino)-1H-pyrazol-5-yl)cyclopentyl isopropylcarbamate], the 50% inhibitory concentration (IC50) against CDK1/Cyclin B1 came to 73 nM; at CDK2/Cyclin E1, 6.4 nM.
For the compound `[2H]C([2H])([2H])N1c2ccc(Nc3cc([C@@H]4CC[C@H](OC(=O)NCCC)C4)[nH]n3)c(F)c2CS1(=O)=O` (single isomer, unassigned) [Example 268a, cis-3-(3-((4-fluoro-1-(methyl-d3)-2,2-dioxido-1,3-dihydrobenzo[c]isothiazol-5-yl)amino)-1H-pyrazol-5-yl)cyclopentyl propylcarbamate], the IC50 at CDK1/Cyclin B1 was 285 nM; against CDK2/Cyclin E1, 14 nM.
`[2H]C([2H])([2H])N1c2ccc(Nc3cc([C@@H]4CC[C@H](OC(=O)NCCC)C4)[nH]n3)c(F)c2CS1(=O)=O` (single isomer, unassigned) [Example 268b, cis-3-(3-((4-fluoro-1-(methyl-d3)-2,2-dioxido-1,3-dihydrobenzo[c]isothiazol-5-yl)amino)-1H-pyrazol-5-yl)cyclopentyl propylcarbamate]: the 50% inhibitory concentration (IC50) at CDK1/Cyclin B1 was 75 nM; at CDK2/Cyclin E1 it was 4 nM.
In the same order, the values of `CC(C)NC(=O)O[C@H]1CC[C@@H](c2cc(Nc3ccc4c(c3F)CS(=O)(=O)N4CCO)n[nH]2)C1` (single isomer, unassigned) [Example 271a, cis-3-(3-((4-fluoro-1-(2-hydroxyethyl)-2,2-dioxido-1,3-dihydrobenzo[c]isothiazol-5-yl)amino)-1H-pyrazol-5-yl)cyclopentyl isopropylcarbamate] are 172 nM and 3.2 nM.
